According to patent US9023852B2, “1, 2, 4-thiadiazol-5-ylpiperazine derivatives useful in the treatment of neurodegenerative diseases” (Remynd NV, priority 2011, dated 2015):

System: M17—3TAU(P301L) cells
Assay: Neuroblastoma tauopathy model: inhibition of TAU-induced cytotoxicity (LDH)
Format: cell-based
Conditions: Homo sapiens, 168 h; inhibition of TAU-induced toxicity (LDH), 7 days differentiation with retinoic acid
Text: A TAU expression plasmid was constructed by sub-cloning the cDNA encoding for human TAU-P301L protein, wherein proline at position 301 is substituted by a leucine residue, into mammalian expression vector pcDNA3.1 resulting in the plasmid pcDNA3.1-TAUP301L. Plasmids pcDNA3.1 and pcDNA3.1-TAU P301L were transfected into human neuroblastoma cells (BE-M17; ATCC No. CRL-2267™) using lipofectamine reagent and subsequently, independent clonal cell lines with the plasmids stably integrated into the genome were selected by antibiotic resistance selection (Geneticin (G418)), resulting in cell lines M17.pcDNA3 and M17—3TAUP301L. Expression of the TAUP301L gene in the M17—3TAUP301L cells was confirmed by Western blot analysis.
Differentiation of the cells with RA leads to phosphorylation and subsequent aggregation of TAU, inducing a tauopathy in these cells. Cytotoxicity of cells was measured by quantification of lactate dehydrogenase (LDH) levels. In dead cells LDH is leaked out of the cells into the medium due to a loss of plasma-membrane integrity.
Briefly, 3 days preceding the experiment pre-cultures of M17.pcDNA3 and M17—3TAU(P301L) cells were prepared, starting from a stock culture, at a density of 50.000-100.000 cells/cm2 in detection medium (Optimem Reduced Serum without phenol red (Gibco, Cat. 31985-047) supplemented with 1% fetal calf serum (FCS), 1 mM sodium pyruvate, 1× non-essential amino acids (NEAA), 500 μg/ml G418 and 0.5× antibiotic/antimycotic (ABAM)). At the day of the experiment these precultures were diluted to ˜0, 1.106 cells/ml in detection medium without FCS and 60 μL of this suspension is dispensed per well into a 96-well microtiter plate. After 3 hours of incubation at 37° C./5% CO2 an equal volume of detection medium containing 2.5 μM RA was added and subsequently incubated for 7 days at 37° C./5% CO2. After 7 days, LDH activity was determined using the Promega Cytotox 96 Non-Radioactive cytotoxicity assay (Cat. G1780), according the manufacturer's instructions. Cytotoxicity is measured as the ratio of LDH increase in the supernatant divided by the LDH increase in the total cell suspension (sum of the LDH measured in cells and supernatant).
The M17—3TAU(P301L) cell line makes it possible to assess the ability of novel compounds to inhibit TAU-induced cytotoxicity. […] Compounds were tested for their ability to hamper TAU-induced toxicity at different concentrations, ranging from low non-effective concentrations to high potent concentrations. Afterwards, the dose-dependent inhibition curve was used to calculate their EC50 (Table 1).

Structure (SMILES)	EC50 [nM]
Cc1ccccc1CN1CCN(c2nc(-c3ccc(Cl)cn3)ns2)CC1 [Example 129, 1-[3-(5-Chloro-pyridin-2-yl)-[1,2,4]thiadiazol-5-yl]-4-(2-methyl-benzyl)-piperazine]	92.3
Cc1ccc(-c2nsc(N3CCN(CCc4ccc(F)c(F)c4)CC3)n2)cn1 [Example 148, 1-[2-(3,4-Difluoro-phenyl)-ethyl]-4-[3-(6-methyl-pyridin-3-yl)-[1,2,4]thiadiazol-5-yl]-piperazine]	67.5
COc1cccc(CCCN2CCN(c3nc(-c4ccc(Cl)cc4)ns3)CC2)c1 [Example 32, 1-[3-(4-Chloro-phenyl)-[1,2,4]thiadiazol-5-yl]-4-[3-(3-methoxy-phenyl)-propyl]-piperazine]	368
FC(F)(F)c1cccc(CCN2CCN(c3nc(-c4cccc(Cl)c4)ns3)CC2)c1 [Example 142, 1-[3-(3-Chloro-phenyl)-[1,2,4]thiadiazol-5-yl]-4-[2-(3-trifluoromethyl-phenyl)-ethyl]-piperazine]	3.7
Clc1ccc(CCN2CCN(c3nc(-c4ccc(Cl)cc4)ns3)CC2)cc1 [Example 25, 1-[2-(4-Chloro-phenyl)-ethyl]-4-[3-(4-chloro-phenyl)-[1,2,4]thiadiazol-5-yl]-piperazine]	7.7
COc1cccc(CCN2CCN(c3nc(-c4cccc(OC)c4)ns3)CC2)c1 [Example 15, 1-[2-(3-Methoxy-phenyl)-ethyl]-4-[3-(3-methoxy-phenyl)-[1,2,4]thiadiazol-5-yl]-piperazine]	21.4
COc1ccc(CCN2CCN(c3nc(-c4ccc(Cl)cc4)ns3)CC2)cn1 [Example 79, 1-[3-(4-Chloro-phenyl)-[1,2,4]thiadiazol-5-yl]-4-[2-(6-methoxy-pyridin-3-yl)-ethyl]-piperazine]	2.8
COc1ccc(CCN2CCN(c3nc(-c4cccc(Cl)c4)ns3)CC2)cn1 [Example 93, 1-[3-(3-Chloro-phenyl)-[1,2,4]thiadiazol-5-yl]-4-[2-(6-methoxy-pyridin-3-yl)-ethyl]-piperazine]	0.9
COc1cccc(C(F)CN2CCN(c3nc(-c4ccc(Cl)cc4)ns3)CC2)c1 (stereo not shown) [Example 65, 1-[3-(4-Chloro-phenyl)-[1,2,4]thiadiazol-5-yl]-4-[2-fluoro-2-(3-methoxy-phenyl)-ethyl]-piperazine]	59.9
Fc1ccc(CCN2CCN(c3nc(-c4cccc(F)c4)ns3)CC2)cc1 [Example 86, 1-[2-(4-Fluoro-phenyl)-ethyl]-4-[3-(3-fluoro-phenyl)-[1,2,4]thiadiazol-5-yl]-piperazine]	8.9
COc1ccc(CCN2CCN(c3nc(-c4ccc(F)c(F)c4)ns3)CC2)cn1 [Example 105, 1-[3-(3,4-Difluoro-phenyl)-[1,2,4]thiadiazol-5-yl]-4-[2-(6-methoxy-pyridin-3-yl)-ethyl]-piperazine]	2.1
COc1cccc(CCN2CCN(c3nc(-c4cc(Cl)cc(Cl)c4)ns3)CC2)c1 [Example 31, 1-[3-(3,5-Dichloro-phenyl)-[1,2,4]thiadiazol-5-yl]-4-[2-(3-methoxy-phenyl)-ethyl]-piperazine]	21.1
Cc1ccccc1CN1CCN(c2nc(-c3cccc(C#N)c3)ns2)CC1 [Example 119, 3-{5-[4-(2-Methyl-benzyl)-piperazin-1-yl]-[1,2,4]thiadiazol-3-yl}-benzonitrile]	25
Clc1ccc(CCN2CCN(c3nc(-c4cc(Cl)ccn4)ns3)CC2)cc1 [Example 123, 1-[2-(4-Chloro-phenyl)-ethyl]-4-[3-(4-chloro-pyridin-2-yl)-[1,2,4]thiadiazol-5-yl]-piperazine]	94.6
FC(F)(F)Oc1cccc(CCN2CCN(c3nc(-c4ccc(Cl)cc4)ns3)CC2)c1 [Example 38, 1-[3-(4-Chloro-phenyl)-[1,2,4]thiadiazol-5-yl]-4-[2-(3-trifluoromethoxy-phenyl)-ethyl]-piperazine]	211
Cc1ccc(-c2nsc(N3CCN(CCc4ccccc4)CC3)n2)cn1 [Example 94, 1-[3-(6-Methyl-pyridin-3-yl)-[1,2,4]thiadiazol-5-yl]-4-phenethyl-piperazine]	9.5
Fc1cccc(-c2nsc(N3CCN(CCc4cccc(C(F)(F)F)c4)CC3)n2)c1 [Example 141, 1-[3-(3-Fluoro-phenyl)-[1,2,4]thiadiazol-5-yl]-4-[2-(3-trifluoromethyl-phenyl)-ethyl]-piperazine]	198

Structure (SMILES)	EC50 [nM]
COc1cc(CCN2CCN(c3nc(-c4cnnc(C)c4)ns3)CC2)ccn1 [Example 176, 5-(4-(2-(2-methoxypyridin-4-yl)ethyl)piperazin-1-yl)-3-(6-methylpyridazin-4-yl)-1,2,4-thiadiazole]	19.5
Clc1cccc(-c2nsc(N3CCN(CCC4CCOCC4)CC3)n2)c1 [Example 165, 3-(3-chlorophenyl)-5-(4-(2-(tetrahydro-2H-pyran-4-yl)ethyl)piperazin-1-yl)-1,2,4-thiadiazole]	1.1
COc1ccc(CCN2CCN(c3nc(-c4ccc(Cl)cc4F)ns3)CC2)cc1 [Example 56, 1-[3-(4-Chloro-2-fluoro-phenyl)-[1,2,4]thiadiazol-5-yl]-4-[2-(4-methoxy-phenyl)-ethyl]-piperazine]	5.5
N#Cc1ccc(-c2nsc(N3CCN(CCc4ccc(F)cc4)CC3)n2)cc1 [Example 110, 4-(5-{4-[2-(4-Fluoro-phenyl)-ethyl]piperazin-1-yl}-[1,2,4]thiadiazol-3-yl)-benzonitrile]	17.8
Fc1ccc(CCN2CCN(c3nc(-c4cccc(Cl)c4)ns3)CC2)cc1 [Example 85, 1-[3-(3-Chloro-phenyl)-[1,2,4]thiadiazol-5-yl]-4-[2-(4-fluoro-phenyl)-ethyl]-piperazine]	3.1
N#Cc1cccc(-c2nsc(N3CCN(CCc4ccc(F)cc4)CC3)n2)c1 [Example 111, 3-(5-{4-[2-(4-Fluoro-phenyl)-ethyl]piperazin-1-yl}-[1,2,4]thiadiazol-3-yl)-benzonitrile]	3.1
COc1cccc(CCN2CCN(c3nc(-c4cccs4)ns3)CC2)c1 [Example 33, 1-[2-(3-Methoxy-phenyl)-ethyl]-4-(3-thiophen-2-yl-[1,2,4]thiadiazol-5-yl)-piperazine]	158
N#Cc1ccc(-c2nsc(N3CCN(CCc4ccc(Cl)cc4)CC3)n2)cc1 [Example 112, 4-(5-{4-[2-(4-Chloro-phenyl)-ethyl]piperazin-1-yl}-[1,2,4]thiadiazol-3-yl)-benzonitrile]	56.7
Clc1cccc(-c2nsc(N3CCN(CCC4CCCCC4)CC3)n2)c1 [Example 162, 3-(3-chlorophenyl)-5-(4-(2-cyclohexylethyl)piperazin-1-yl)-1,2,4-thiadiazole]	3.3
COc1cc(CCN2CCN(c3nc(-c4cnc(C)nc4)ns3)CC2)ccn1 [Example 183, 5-(4-(2-(2-methoxypyridin-4-yl)ethyl)piperazin-1-yl)-3-(2-methylpyrimidin-5-yl)-1,2,4-thiadiazole]	152
Cc1cc(-c2nsc(N3CCN(CCc4ccccc4)CC3)n2)cnn1 [Example 173, 3-(6-methylpyridazin-4-yl)-5-(4-phenethylpiperazin-1-yl)-1,2,4-thiadiazole]	2.9
COc1ccc(CCN2CCN(c3nc(-c4ccc(C#N)cc4)ns3)CC2)cc1 [Example 78, 4-(5-{4-[2-(4-Methoxy-phenyl)-ethyl]-piperazin-1-yl}-[1,2,4]thiadiazol-3-yl)-benzonitrile]	2.1
COc1cccc(CCN2CCN(c3nc(-c4ccc(OC(F)(F)F)cc4)ns3)CC2)c1 [Example 36, 1-[2-(3-Methoxy-phenyl)-ethyl]-4-[3-(4-trifluoromethoxy-phenyl)-[1,2,4]thiadiazol-5-yl]-piperazine]	119
Clc1ccc(-c2nsc(N3CCN(CCc4cccc(Cl)c4)CC3)n2)cc1 [Example 22, 1-[2-(3-Chloro-phenyl)-ethyl]-4-[3-(4-chloro-phenyl)-[1,2,4]thiadiazol-5-yl]-piperazine]	4.2
COc1ccc(CCN2CCN(c3nc(-c4ccc(C)cc4)ns3)CC2)cc1 [Example 19, 1-[2-(4-Methoxy-phenyl)-ethyl]-4-(3-p-tolyl-[1,2,4]thiadiazol-5-yl)-piperazine]	2
Cc1ccccc1CN1CCN(c2nc(-c3cccc(F)c3)ns2)CC1 [Example 99, 1-[3-(3-Fluoro-phenyl)-[1,2,4]thiadiazol-5-yl]-4-(2-methyl-benzyl)-piperazine]	271
COc1ccc(CCN2CCN(c3nc(-c4cccc(C#N)c4)ns3)CC2)cc1 [Example 81, 3-(5-{4-[2-(4-Methoxy-phenyl)-ethyl]-piperazin-1-yl}-[1,2,4]thiadiazol-3-yl)-benzonitrile]	0.6
